Experimental data as given in patent US20220296566A1, “COMBINATION PRODUCT CONTAINING LIMONOID COMPOUND AND ALPHA-GLUCOSIDASE INHIBITOR” (ZHEJIANG YANGSHENGTANG INSTITUTE OF NATURAL MEDICATION CO., …, priority 2019, published 2022).

System: db/db mice
Test: Serum leptin by Elisa in db/db mice (Example 2)
Assay type: in vivo
Settings: single agent 0.04 g/kg per day by gavage, two weeks, mean ± SD
Source text: Effects of limonoid compound, acarbose or combination thereof on blood glucose and leptin in mouse type II diabetes model
In the present example, db/db mice (line name BKS.Cg-Dock7^m+/+Lepr^db/Nju) were used to perform hypoglycemic efficacy evaluation test of animals (blood glucose level and leptin). The limonoid compound was selected from obacunone, isoobacunoic acid and obacunone glycoside, and acarbose single administration group, obacunone single administration group, isoobacunoic acid single administration group, obacunone glycoside single administered group, and respective combination thereof with acarbose administration groups were set.
Conditions for experimental feeding: as type II diabetes model mice, 6-week-old SPF-grade db/db mice were purchased from the Nanjing Model Biology Institute, and subjected to experimental feeding after 7 days of preliminary feeding. It should be noted that the conditions for raising the mice were as follows: the temperature was 23±1° C., the humidity was 55±10%, the lights were turned on between 7 am and 7 pm (the lights were turned off at other time), and the mice were allowed to freely take in water and feed. […]

## C[C@H]1O[C@H](O[C@H]2[C@H](O)[C@@H](O)[C@@H](O[C@H]3[C@H](O)[C@@H](O)C(O)O[C@@H]3CO)O[C@@H]2CO)[C@H](O)[C@@H](O)[C@@H]1N[C@H]1C=C(CO)[C@@H](O)[C@H](O)[C@H]1O (stereo partly shown) [Acarbose, acarbose]
  Leptin: 35.57 ± 2.98 pg/mL
